Test results from ChEMBL document CHEMBL1146310, “Amplification of DNA-binding affinities of protoberberine alkaloids by appended polyamines” (Bioorg Med Chem Lett, 2007).

system: DNA; assay: Binding affinity to calf thymus DNA; format: nucleic-acid assay; conditions: Bos taurus

| Kapp | SMILES |
| --- | --- |
| 8.72 10^3/M | COc1cc2c(cc1OC)-c1cc3ccc(OC)c(OC)c3c[n+]1CC2 |
| 1.15 10^7/M | COc1cc2c(cc1OCCCNC(=O)C(N)CCCCNC(=O)C(N)CCCCN)CC[n+]1cc3c(OCCCNC(=O)C(N)CCCCNC(=O)C(N)CCCCN)c(OC)ccc3cc1-2 (centres undefined) |
| 2.81 10^5/M | COc1cc2c(cc1OCCCN)CC[n+]1cc3c(OCCCN)c(OC)ccc3cc1-2 |
| 1.08 10^7/M | COc1cc2c(cc1OCCCNC(=O)C(N)CCCCN)CC[n+]1cc3c(OCCCNC(=O)C(N)CCCCN)c(OC)ccc3cc1-2 (centres undefined) |
